# According to patent US5925369A, “Bis alkanoyl esters of carnitine having bactericidal, fungicidal and antiprotozoal activity” (priority 1996, dated 1999):
# Where two headings read alike, the source gives them in different places.
# Experiments:
# Candida strains = test: MIC on Candida strains (all clinical isolates); format: cell-based, Candida albicans; conditions: for MIC: Candida clinical isolates, 10 strains
# Procedure: (§1) Overnight yeast cultures in Sabouraud broth are appropriately washed and diluted in Yeast Nitrogen Base supplemented with asparagine and glucose (Y.N.B.s.) to yield approximately 5.0×10^4 CFU/ml in microtiter wells. Substance dilutions (0.3 log) in Y.N.B.s. are added to these suspensions to a final concentration range from 0.19 to 100 mcg/ml. Microtiter plates are then incubated at 35° C. for 24-48 hours (See PFALLER M., RINALDI M. G., […] J. M., BARTLETT M. S., BODY B. A., ESPINEL-INGROFF A., FROMTLING R. A., HALL G. S., HUGHES G. E., ODDS F. C., SUGAR A. M., Collaborative investigator of variables in susceptibility testing of yeasts, Ant. Agent and Chemoth., 34, 9:1648-1656, 1990. COOK R., McINTYRE K. A., […] J. M., Effects of incubation temperature, inoculum size, and medium on agreement of macro and microdilution broth susceptibility test, results for yeasts, Ant. Agent and Chemoth., 34, 8:1542-1545, 1990. […] E., PAETZNICK V., BODEY G. P., Fluconazole susceptibility testing of "Candida albicans" microtiter method that is indipendent of inoculum size, temperature, and time of reaching, Ant. Agent and Chemoth., 35, 8:1641-1646, 1991).
# yeast-like strains = test: MIC on yeast-like strains (all lab collection strains); format: cell-based; conditions: 5 strains
# Procedure: as §1
# Trichomonas vaginalis = test: MIC on protozoa (Trichomonas vaginalis); format: cell-based; conditions: for MIC: Trichomonas vaginalis
# Procedure: Protozoal suspensions are prepared from 24-hour cultures grown at 37° C. and 5% CO2 in DIAMOND T.Y.M. broth supplemented with 10% heat-inactivated FCS.
# The suspensions are adjusted, in the same medium, to a final concentration of 2.5×10^5 cells/ml in each well of a 96-well microtiter plate. Substance dilutions (0.3 log) are added to the suspensions in order to have a range of final concentrations from 0.19 to 100 mcg/ml. Microtiters are then incubated at 37° C. and 5% CO2 for 24 hours. MIC is referred to as the minimal concentration inhibiting either protozoa or flagella or undulating membrane motility (Cf. JULIANO C., MARTINOTTI M. G., […] P., In vitro effect of microtubule inhibitors on T. vaginalis, Microbiologia, 8:31-42, 1985. LOVGREN T. and SALMELA I., Invitro sensitivity of T. vaginalis and C. albicans to chemotherapeutic agents, Acta Path. Microbiol. Scand.. 86:155-158, 1978).
# [1] = test system: Tricophyton quinckeanum NCPF 309; test: In vivo antiinfective effect on topical mixed infection in mice; design: species or system BALB/c mice; key to T. quinckeanum: Not cured animals (fungal growth): +++: confluent fungal growth (from a 1ml skin homogenate); ++: semiconfluent fungal growth (from a 1ml skin homogenate); +: moderate fungal growth (from a 1ml skin homogenate); conditions: for T. quinckeanum: Cured animals: 5 animals/group
# Procedure: (§2) Male inbred BALB/c mice (C. RIVER), aged 6 weeks were used (5 animals per group).
# (§3) The animals were topically infected with pathogenic strains of Tricophyton (Tricophyton quinckeanum NCPF 309) and Staphylococcus (Staphylococcus aureus LC1).
# (§4) Suspensions of fungal microaleuriospores and bacteria were adjusted to a final concentration of 5.0×10^7 and 1.0×10^7 cells/ml, respectively. Volumes of 0.2 ml of each suspension were applied onto the upper posterior zone of the animals, which had previously been shaved and gently abraded with a scalpel blade until "glistening". Treatment started 30 hours after the inocula by administering 50 mg of each substance in a gel form (1% test article) on the infected skin once a day for 5 consecutive days. Two days following the last treatment, animals were sacrificed and infected tissue samples were collected. Following homogenization and appropriate dilution in medium, tissue samples were plated (in Mycobiotic agar and Mannitol Salt agar for fungi and bacteria, respectively) to selectively assess the growth of the pathogens. Fungal growth is evaluated by means of an arbitrary scale, while bacterial growth is evaluated by determining the CFUs (Colony Forming Units).
# P. vulgaris = test: MIC on Gram negative bacteria; format: cell-based; conditions: Proteus vulgaris; P. vulgaris UM, lab collection; read-out: Minimal Inhibitory Concentration
# Procedure: Bacterial suspensions are prepared from an overnight culture in Mueller-Hinton broth and are adjusted, in the same medium, to a final concentration of 5.0×10^4 cells/ml in each well of a 96-well microtiter plate. Substance dilutions (0.3 log) in Mueller-Hinton broth are added to the suspensions in order to have a range of final concentrations from 0.19 to 100 mcg/ml.
# Microtiters are then incubated at 37° C. for 18 hours. (See L. D. THRUPP, Susceptibility testing of antibiotics in liquid media, in: Antibiotics in laboratory medicine. V. LORIAN Ed., II edition, 4, 93-150, Williams & Wilkins, Baltimora, Md. 21202 U.S.A.).
# filamentous fungi = test: MIC on filamentous fungi (all strains); format: cell-based; conditions: for MIC: lab collection, 5 strains
# Procedure: The conidia are collected from 72-hour cultures in Sabouraud agar by washing them with Sabouraud broth and 0.5% Tween 80. After a coarse filtration and washing, the resulting suspensions are adjusted to a final concentration of approx. 5.0×10^4 CFU/ml in a microtiter plate. The substances (0.3 log dilutions in Y.N.B.s.) are added to the fungal suspensions in order to generate a range of final concentrations from 0.19 to 100 mcg/ml. The microtiter plates are then incubated at 35° C. for 48-72 hours.
# [2] = test system: Staphylococcus aureus LC1; test: In vivo antiinfective effect on topical mixed infection in mice; design: species or system BALB/c mice; conditions: for S. aureus: Not cured animals (mean CFU/mouse) / S. aureus: Cured animals: 50 mg/day of 1% gel, topical, 5 days; for S. aureus: Cured animals: 5 animals/group; for activity on S. aureus, ST 1226 and ST 1103 compared: mixed topical infection
# Procedure: as §2, §3, §4
# anaerobic bacteria = test: MIC on anaerobic bacteria (all strains); format: cell-based; conditions: for MIC: 3 strains
# Procedure: Bacteria from cultures in […].) medium on Petri dishes, grown overnight at 35° C. in an anaerobic jar, were resuspended in Brucella broth. The suspensions were adjusted to 1.0×10^8 cells/ml and distributed (0.2 ml/well) in microtiter plates (96-well U-bottomed plate). At the same time, 0.3 log dilutions of the substances are mixed with W. C. agar medium in four-sectioned Petri dishes, which are then seeded with the bacterial suspension by means of a multipoint inoculator (1.0×10^5 cells/spot). The plates are then incubated at 35° C. for 48 hours in an anaerobic jar) (See J. E. ROSENBLATT, Antimicrobial susceptibility testing of anaerobes, in Antibiotics in laboratory medicine. V. LORIAN Ed., II edition, 6, 159-180, Williams & Wilkins, Baltimora, Md 21202 U.S.A.).
# [3] = T. vaginalis SS-2, read-out: Minimal Inhibitory Concentration
# [4] = T. vaginalis SS-9, read-out: Minimal Inhibitory Concentration
# [5] = T. vaginalis SS-20, Metronidazole resistant, read-out: Minimal Inhibitory Concentration
# [6] = T. vaginalis SS-22, Metronidazole resistant, read-out: Minimal Inhibitory Concentration
# [7] = T. vaginalis, 4 strains, read-out: Mean MIC
# [8] = 50 mg/day of 1% gel, topical, 5 days
smiles,measurement,setting,value
"CCCCCCCCCCCOC(=O)C[C@H](C[N+](C)(C)C)OC(=O)CC(C)C [ST 1103, isovaleryl L-carnitine undecyl ester methanesulfonate, reference compound]",MIC,Candida strains,4.68 µg/mL
same,MIC,yeast-like strains,2.8 µg/mL
same,MIC,Trichomonas vaginalis; [3],25 µg/mL
same,MIC,Trichomonas vaginalis; [4],25 µg/mL
same,MIC,Trichomonas vaginalis; [5],25 µg/mL
same,MIC,Trichomonas vaginalis; [6],25 µg/mL
same,MIC,Trichomonas vaginalis; [7],25 µg/mL
same,T. quinckeanum: Not cured animals (fungal growth),[1]; [8],+
same,T. quinckeanum: Cured animals,[1]; [8],80%
same,MIC,P. vulgaris,50 µg/mL
same,MIC,filamentous fungi,18.8 µg/mL
same,S. aureus: Not cured animals (mean CFU/mouse),[2],40 CFU/mouse
same,S. aureus: Cured animals,[2],80%
same,"activity on S. aureus, ST 1226 and ST 1103 compared",[2],identical activity on S. aureus
same,MIC,anaerobic bacteria,11.4 µg/mL
"CCCCCCCCCCC(=O)O[C@H](CC(=O)OCc1ccc(COC(=O)C[C@H](C[N+](C)(C)C)OC(=O)CCCCCCCCCC)cc1)C[N+](C)(C)C [ST 1226, bis(undecanoyl L-carnitine chloride)p-xylilene diester]",MIC,Candida strains,2.49 µg/mL
same,activity compared with ST 1103,"Candida strains; yeast-like strains, mostly Candida clinical isolates","higher activity than ST 1103, mostly against Candida clinical isolates"
same,MIC,yeast-like strains,2.49 µg/mL
same,greater (fold) activity than ST 1103,"Trichomonas vaginalis; T. vaginalis, ST 1226 vs ST 1103",2 fold
same,MIC,Trichomonas vaginalis; [3],12.5 µg/mL
same,MIC,Trichomonas vaginalis; [4],12.5 µg/mL
same,MIC,Trichomonas vaginalis; [5],12.5 µg/mL
same,MIC,Trichomonas vaginalis; [6],12.5 µg/mL
same,MIC,Trichomonas vaginalis; [7],12.5 µg/mL
same,T. quinckeanum: Cured animals,[1]; [8],100%
same,antifungal activity compared with ST 1103,[1]; mixed topical infection,greater antinfungal activity than ST 1103
same,MIC,P. vulgaris,50 µg/mL
same,MIC,filamentous fungi,8.43 µg/mL
same,activity compared with ST 1103,filamentous fungi; single results and mean MIC,markedly higher activity than ST 1103
same,S. aureus: Not cured animals (mean CFU/mouse),[2],50 CFU/mouse
same,S. aureus: Cured animals,[2],80%
same,"activity on S. aureus, ST 1226 and ST 1103 compared",[2],identical activity on S. aureus
same,mean MIC value compared with ST 1103,anaerobic bacteria,smaller than ST 1103
same,MIC,anaerobic bacteria,8.33 µg/mL
